Source: patent US20250206761A1, “HALOINDOLE MACROCYCLIC COMPOUNDS FOR THE TREATMENT OF CANCER” (Hoffmann-La Roche Inc., priority 2022, published 2025)

Columns and labels:
[1] = system: NCI-H358 (ATCC-CRL5807) cells; assay: Cell viability assay, G12C (NCI-H358); format: cell-based, human; conditions: KRAS cell viability, NCI-H358, 72 hrs, Cell Counting Kit-8
Experimental: (§1) The purpose of this cellular assay was to determine the effects of test compounds on the proliferation of human cancer cell lines NCI-H358 (ATCC-CRL5807) cells, AGS (ATCC-CRL-1739) cells, SW620 (ATCC-CCL-227) over a 3-day treatment period by quantifying the amount of NADPH present at endpoint using Cell Counting Kit-8.
(§2) Cells were seeded at 5,000 cells/well (NCI-H358), 2,000 cells/well (AGS) 2,000 cells/well (SW620) in 96-well assay plates (Corning-3699) and incubated overnight. On the day of the assay, diluted compounds were then added in a final concentration of 0.5% DMSO. After 72 hrs incubation, a tenth of the volume of cell counting kit 8 (Dnjindo-CK04) was added into each well. Read the signal (OD450 minus OD650) using EnVision after 2 hrs incubation. IC50 was determined by fitting a 4-parameter sigmoidal concentration response model.

[2] = system: AGS (ATCC-CRL-1739) cells; assay: Cell viability assay, G12D (AGS); format: cell-based, human; conditions: KRAS cell viability, 72 hrs, Cell Counting Kit-8
Experimental: as §1, §2

SW620 (ATCC-CCL-227) = assay: Cell viability assay, G12V (SW620); format: cell-based, human; conditions: KRAS cell viability, SW620, 72 hrs, Cell Counting Kit-8
Experimental: as §1, §2

KRAS G12C-BRAF complex = KRAS G12C-BRAF complex (Homo sapiens (Human), UniProt P01116+P62937, G12C); assay: KRAS-BRAF with CYPA (500 nM) interaction assay (TR-FRET), G12C; format: biochemical
Experimental: (§3) In this example, TR-FRET was also used to measure the compound or compound-CYPA dependent disruption of the KRAS G12C-BRAF complex. This protocol was also used to measure disruption of KRAS G12D or KRAS G12V binding to BRAF by a compound of the invention, respectively. In assay buffer containing 25 mM HEPES PH=7.4 (4-(2-hydroxyethyl)-1-piperazineethanesulfonic acid, Thermo, 15630080), 0.002% Tween20, 0.1% BSA, 100 mM NaCl, 5 mM MgCl2, 10 μM GMPPNP (Guanosine 5′-[β,γ-imido]triphosphate trisodium salt hydrate, Sigma, G0635), […] 384-well assay plate at final concentrations of 50 nM, 6.25 nM and 1 nM, respectively. Compound was present in plate wells as a 16-point 3-fold dilution series starting at a final concentration of 10 μM and incubated for 3 hours. A mixture of MAb Anti-6His-XL665 (Cisbio, 61HISXLB) and Mab anti-GST-TB cryptate (Cisbio, 61GSTTLB) was then added at a final concentration of 6.67 nM and 0.21 nM, respectively, and the plate was incubated for an additional 1.5 hours. TR-FRET signal was read on a PHERstar FSX microplate reader (Ex320 nm, Em 665/615 nm). Compounds that facilitate disruption of the KRAS-BRAF complex were identified as those eliciting a decrease in the TR-FRET ratio relative to DMSO control wells.

[3] = target: KRAS G12D binding to BRAF (Homo sapiens (Human), UniProt P01116+P62937, G12D); assay: KRAS-BRAF with CYPA (500 nM) interaction assay (TR-FRET), G12D; format: biochemical
Experimental: as §3

[4] = target: KRAS G12V binding to BRAF (Homo sapiens (Human), UniProt P01116+P62937, G12V); assay: KRAS-BRAF with CYPA (500 nM) interaction assay (TR-FRET), G12V; format: biochemical
Experimental: In this example, TR-FRET was also used to measure the compound or compound-CYPA dependent disruption of the KRAS G12C-BRAF complex. This protocol was also used to measure disruption of KRAS G12D or KRAS G12V binding to BRAF by a compound of the invention, respectively. In assay buffer containing 25 mM HEPES PH=7.4 (4-(2-hydroxyethyl)-1-piperazineethanesulfonic acid, Thermo, 15630080), 0.002% Tween20, 0.1% BSA, 100 mM NaCl, 5 mM MgCl2, 10 μM GMPPNP (Guanosine 5′-[β,γ-imido]triphosphate trisodium salt hydrate, Sigma, G0635), […], GMPPNP loaded 6His-KRAS proteins, and […], 6.25 nM and 1 nM, respectively. Compound was present in plate wells as a 16-point 3-fold dilution series starting at a final concentration of 10 μM and incubated for 3 hours. A mixture of MAb Anti-6His-XL665 (Cisbio, 61HISXLB) and Mab anti-GST-TB cryptate (Cisbio, 61GSTTLB) was then added at a final concentration of 6.67 nM and 0.21 nM, respectively, and the plate was incubated for an additional 1.5 hours. TR-FRET signal was read on a PHERstar FSX microplate reader (Ex320 nm, Em 665/615 nm). Compounds that facilitate disruption of the KRAS-BRAF complex were identified as those eliciting a decrease in the TR-FRET ratio relative to DMSO control wells.

[5] = system: phosphorylation of ERK, KRAS G12C in NCJ-H358 cells; assay: pERK inhibition assay, KRAS G12C; format: cell-based, human; conditions: 4 hours
Experimental: (§4) This assay is to measure the ability of test compounds in inhibiting the phosphorylation of ERK, the downstream signaling of KRAS G12C in NCJ-H358 cells, KRAS G12D in AGS cells, and KRAS G12V in SW620. NCJ-H358 (ATCC-CRL5807) cells, AGS (ATCC-CRL-1739) cells, SW620 (ATCC-CCL-227) cells were all grown and maintained using RPMI-1640 medium (Thermo Fisher Scientific) with 10% fetal bovine serum and 1% penicillin/streptomycin. On the day prior to compound addition, cells were plated in tissue culture-treated 96 well plates (Corning-3699) at a density of 30,000 cell/well, 20,000 cell/well, 30,000 cell/well for NCJ-H358, AGS and SW620 respectively, and allowed for attachment overnight. Diluted compounds were then added in a final concentration of 0.5% DMSO. After 4 hours of incubation, the medium was removed, 100 μL of 4% formaldehyde was added, and the assay plates were incubated at room temperature for 20 minutes. The plates were then washed once with phosphate buffered saline (PBS), and permeabilized with 100 μL of chilled methanol for 10 minutes. Non-specific antibody binding to the plates was blocked using 50 μL 1×BSA blocking buffer (Thermo-37520, 10-fold dilution by Phosphate-Buffered Saline Tween (PBST) for at least 1 hour at room temperature.
(§5) The amount of phosphor-ERK was determined using an antibody specific for phosphorylated form of ERK. Primary antibody (pERK, CST-4370, Cell Signaling Technology) was diluted 1:300 in blocking buffer, with 50 μL aliquoted to each well, and incubated overnight at 4′° C. Cells was washed five times for 5 minutes with PBST. Secondary antibody ([…] anti-rabbit IgG, CST-7074, Cell Signaling Technology) was diluted 1:1000 in blocking buffer, and 50 μL was added to each well and incubated 1-2 hrs at room temperature. Cells was washed 5 times for 5 minutes with PBST, 100 μL TMB ELISA substrate (abcam-ab171523) were added and gently shake for 20 minutes. 50 μL stop solution (abcam-ab171529) were added, and then read the signal (OD450) by EnVision.
(§6) IC50 was determined by fitting a 4-parameter sigmoidal concentration response model.

[6] = system: phosphorylation of ERK, KRAS G12V in SW620; assay: pERK inhibition assay, KRAS G12V; format: cell-based, human
Experimental: as §4, §5, §6

[7] = Homo sapiens, SW-620, SW620, 4 hours

Sequence of KRAS G12C-BRAF complex (P01116-2 other isoform, or with tags, fused parts or gaps G12C): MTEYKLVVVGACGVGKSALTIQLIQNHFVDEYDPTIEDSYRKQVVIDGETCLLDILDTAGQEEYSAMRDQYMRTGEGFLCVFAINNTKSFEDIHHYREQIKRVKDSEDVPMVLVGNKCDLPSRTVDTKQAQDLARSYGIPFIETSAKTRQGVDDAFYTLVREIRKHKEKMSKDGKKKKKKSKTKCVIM
Sequence of KRAS G12C-BRAF complex (P62937 whole entry): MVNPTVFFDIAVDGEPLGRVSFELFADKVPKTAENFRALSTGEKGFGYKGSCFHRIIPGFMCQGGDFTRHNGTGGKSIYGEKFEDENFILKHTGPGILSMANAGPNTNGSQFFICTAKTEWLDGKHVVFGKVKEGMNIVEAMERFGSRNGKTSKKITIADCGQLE
Sequence of KRAS G12D binding to BRAF (P01116-2 other isoform, or with tags, fused parts or gaps G12D): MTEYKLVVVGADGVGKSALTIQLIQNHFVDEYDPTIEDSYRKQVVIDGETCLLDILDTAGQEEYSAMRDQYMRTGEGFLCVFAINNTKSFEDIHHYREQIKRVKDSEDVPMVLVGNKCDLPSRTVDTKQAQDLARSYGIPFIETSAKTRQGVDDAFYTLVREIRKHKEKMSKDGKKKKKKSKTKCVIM
Sequence of KRAS G12D binding to BRAF (P62937 whole entry): as the sequence (P62937 whole entry) above
Sequence of KRAS G12V binding to BRAF (P01116-2 other isoform, or with tags, fused parts or gaps G12V): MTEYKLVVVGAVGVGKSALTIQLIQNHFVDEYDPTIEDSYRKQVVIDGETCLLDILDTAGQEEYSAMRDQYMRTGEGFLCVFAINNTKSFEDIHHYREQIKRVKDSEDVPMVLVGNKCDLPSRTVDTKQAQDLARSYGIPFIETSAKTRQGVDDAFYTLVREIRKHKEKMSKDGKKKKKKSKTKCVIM
Sequence of KRAS G12V binding to BRAF (P62937 whole entry): as the sequence (P62937 whole entry) above

| Compound | IC50 [1] [nM] | IC50 [2] [nM] | IC50 (SW620 (ATCC-CCL-227)) [nM] | IC50 (KRAS G12C-BRAF complex) [nM] | IC50 [3] [nM] | IC50 [4] [nM] | IC50 [5] [nM] | IC50 ([6]; SW620, 4 hours) [nM] | IC50 ([1]; Homo sapiens) [nM] | IC50 ([2]; Homo sapiens) [nM] | IC50 (SW620 (ATCC-CCL-227); Homo sapiens, SW-620) [nM] | IC50 ([5]; Homo sapiens) [nM] | IC50 [6, 7] [nM] |
| --- | --- | --- | --- | --- | --- | --- | --- | --- | --- | --- | --- | --- | --- |
| CCn1c(-c2cc(N3CCN(CC(F)(F)F)CC3)cnc2[C@H](C)OC)c2c3cc(c(F)cc31)-c1csc(n1)C[C@H](NC(=O)[C@H](C(C)C)N1CC[C@]3(CCN(C(=O)[C@H](F)Cl)C3)C1=O)C(=O)N1CCC[C@H](N1)C(=O)OCC(C)(C)C2 [Example 38, (2S)-2-[(5S)-7-[(2R)-2-chloro-2-fluoro-acetyl]-1-oxo-2,7-diazaspiro[4.4]nonan-2-yl]-N-[(7S,13S)-21-ethyl-24-fluoro-(20M)-20-[2-[(1S)-1-methoxyethyl]-5-[4-(2,2,2-trifluoroethyl)piperazin-1-yl]-3-pyridyl]-17,17-dimethyl-8,14-dioxo-15-oxa-4-thia-9,21,27,28-tetrazapentacyclo[17.5.2.1^2,5.1^9,13.0^22,26]octacosa-1(25),2,5(28),19,22(26),23-hexaen-7-yl]-3-methyl-butanamide] | < 1 | 223 | 103 | 32 | 3300 | 910 | 1 | 45 |  |  |  |  |  |
| CO[C@@H](C)c1ncc(N2CCN(CC(F)(F)F)CC2)cc1-c1c2c3cc(c(F)cc3n1CC(F)(F)F)-c1csc(n1)C[C@H](NC(=O)[C@H](C(C)C)N1CC[C@@]3(CCN(C(=O)[C@H](F)Cl)C3)C1=O)C(=O)N1CCC[C@H](N1)C(=O)OCC(C)(C)C2 (atropisomer, axis not shown) [Example 43, (2S)-2-[(5R)-7-[(2R)-2-chloro-2-fluoro-acetyl]-1-oxo-2,7-diazaspiro[4.4]nonan-2-yl]-N-[(7S,13S)-24-fluoro-20-[2-[(1S)-1-methoxyethyl]-5-[4-(2,2,2-trifluoroethyl)piperazin-1-yl]-3-pyridyl]-17,17-dimethyl-8,14-dioxo-21-(2,2,2-trifluoroethyl)-15-oxa-4-thia-9,21,27,28-tetrazapentacyclo[17.5.2.1^2,5.1^9,13.0^22,26]octacosa-1(25),2,5(28),19,22(26),23-hexaen-7-yl]-3-methyl-butanamide] |  |  |  | 22 | 2200 | 1690 |  |  | < 1 | 67 | 171 | 6 | 44 |
| CCn1c(-c2cc(N3CCN(CC(F)(F)F)CC3)cnc2[C@H](C)OC)c2c3cc(c(F)cc31)-c1csc(n1)C[C@H](NC(=O)[C@H](C(C)C)N1CCC3(CCN(C(=O)[C@H](F)Cl)CC3)C1=O)C(=O)N1CCC[C@H](N1)C(=O)OCC(C)(C)C2 (atropisomer, axis not shown; (M)) [Example 39, (2S)-2-[8-[(2R)-2-chloro-2-fluoro-acetyl]-1-oxo-2,8-diazaspiro[4.5]decan-2-yl]-N-[(7S,13S)-21-ethyl-24-fluoro-(20M)-20-[2-[(1S)-1-methoxyethyl]-5-[4-(2,2,2-trifluoroethyl)piperazin-1-yl]-3-pyridyl]-17,17-dimethyl-8,14-dioxo-15-oxa-4-thia-9,21,27,28-tetrazapentacyclo[17.5.2.1^2,5.1^9,13.0^22,26]octacosa-1(25),2,5(28),19,22(26),23-hexaen-7-yl]-3-methyl-butanamide] |  |  |  | 104 | > 10000 | > 10000 |  |  | < 1 | 112 | 184 | 6 | 44 |
| CO[C@@H](C)c1ncc(N2CCN(CC(F)(F)F)CC2)cc1-c1c2c3cc(c(F)cc3n1CC(F)(F)F)-c1csc(n1)C[C@H](NC(=O)[C@H](C(C)C)N1CC[C@]3(CCN(C(=O)[C@H](F)Cl)C3)C1=O)C(=O)N1CCC[C@H](N1)C(=O)OCC(C)(C)C2 (atropisomer, axis not shown; (M)) [Example 45, (2S)-2-[(5S)-7-[(2R)-2-chloro-2-fluoro-acetyl]-1-oxo-2,7-diazaspiro[4.4]nonan-2-yl]-N-[(7S,13S)-24-fluoro-(20M)-20-[2-[(1S)-1-methoxyethyl]-5-[4-(2,2,2-trifluoroethyl)piperazin-1-yl]-3-pyridyl]-17,17-dimethyl-8,14-dioxo-21-(2,2,2-trifluoroethyl)-15-oxa-4-thia-9,21,27,28-tetrazapentacyclo[17.5.2.1^2,5.1^9,13.0^22,26]octacosa-1(25),2,5(28),19,22(26),23-hexaen-7-yl]-3-methyl-butanamide] |  |  |  | 10 | 4970 | 299 |  |  | < 1 | 135 | 121 | 7 | 20 |
